Source: US20110294735A1, “MECHANISM OF NEUROMEDIN U ACTION AND USES THEREOF” (MERCK SHARP & DOHME CORP., priority 2008, published 2011)
Like-named read-outs stand apart in the source and are kept apart here. Non-standard residues stand in square brackets, D forms with d. No end group written: not given here. hArg = N=C(N)NCCCC[C@H](N)C(=O)O

What was measured:
[1] = test system: mice; details: cited from earlier work
[2] = test system: NMUR1 or NMUR2 receptors; experiment: Receptor specificity: binding and activation of NMUR1 or NMUR2; format: biochemical; details: bind and activate
[3] = test system: glucagon levels in plasma; experiment: Oral glucose tolerance test, plasma glucagon; format: in vivo, mice; details: 15 minutes after oral glucose tolerance test (FIG. 6B)
Method: (§1) The Oral Glucose Tolerance Test (OGTT) was performed as follows: Ad libitum fed male diet-induced obese mice were weighed and dosed subcutaneously about 30 minutes prior to the onset of the dark phase of the light cycle. Animals were not given food after dosing. The next day, approximately 18-hours after dosing, basal glucose levels were measured from animals by tail blood. Animals were then administered a glucose dose (1.5 g/kg) by oral gavage and fifteen minutes after dosing with glucose, plasma was collected to evaluate glucagon and glucose levels.
(§2) GLP-1 levels in plasma were measured using the Total GLP-1 kit from Meso Scale Discovery, Gaithersburg, Md. Glucagon levels were measured using the Metabolic Multiplex kit from Meso Scale Discovery, Gaithersburg, Md. PYY levels were measured using the PYY Luminex assay from Millipore, Billerica, Mass. The data shown reports of glucagon, PYY and GLP-1 levels as pg/mL (all values are reported as mean±SEM and data was analyzed using a two-tailed unpaired Student's t test; p values ≦0.05 were reported as significant and are denoted with an asterisk).
Diet-induced obese mice (DIO) were purchased from Taconic Farms. NMUR1 knockout (Nmur1−/−) mice were generated using standard homologous recombination techniques. U.S. Published Application No. 20080172752 discloses NMUR1 knockout mice. […]

[4] = test system: PYY levels in plasma; experiment: Plasma PYY levels in diet-induced obese mice after subcutaneous dosing; format: in vivo
Method: (§3) Animal dosing was as follows. Ad libitum fed male diet-induced obese mice were weighed and dosed subcutaneously about 30 minutes prior to the onset of the dark phase of the light cycle. Animals were either not given food or allowed food during treatment. For NMU studies, plasma was collected by cardiac sticks at two or four hours post dose. For studies with the PEGylated NMU analog, plasma was collected at multiple time points up to 18-hours post dose.
as §2
(§4) Diet-induced obese mice (DIO) were purchased from Taconic Farms. NMUR1 knockout (Nmur1−/−) mice were generated using standard homologous recombination techniques. U.S. Published Application No. 20080172752 discloses NMUR1 knockout mice. NMUR2 knockout (Nmur2−/−) mice were licensed from Deltagen Inc., San Mateo, Calif. and subsequently transferred to Taconic Farms. Mice were individually housed in Tecniplast cages in a conventional SPF facility. Mice were initially maintained on a regular chow diet and then early in their life were switched to a high fat diet (D12492: 60% kcal from fat; Research Diets, Inc., New Brunswick, N.J.) with ad libitum access to water in a 12-hour light/12-hour dark cycle.

[5] = test system: plasma glucose levels; experiment: Oral glucose tolerance test, plasma glucose; format: in vivo, mice; details: 15 minutes after oral glucose tolerance test (FIG. 6A)
Method: as §1, §4

[6] = test system: total GLP-1 levels in plasma; experiment: Plasma total GLP-1 levels in diet-induced obese mice after subcutaneous dosing; format: in vivo; details: for total GLP-1 levels: 10 mpk
Method: as §3, §2, §4

[7] = test system: Nmur1 knockout mice; experiment: Food intake and weight gain in Nmur1 knockout mice after peripheral administration; format: in vivo; details: administered peripherally
[8] = test system: GLP-1 levels in plasma; experiment: Plasma GLP-1 levels in wild-type, Nmur1-deficient and Nmur2-deficient mice; format: in vivo; details: four-hours post dose, absence of food (FIG. 3)
Method: as §2, §4
Plasma was collected from wild-type, Nmur1-deficient and Nmur2-deficient mice four-hours post dose in the absence of food.

## rat NMU-23: full length NMU, a 23-mer (NMU-23) in rats and mice (YKVNEYQGPVAPSGGFFLFRPRN; ends and bridges not checked; UniProt P12760 144-166, looked up) [reference compound]
[1]; chronic central administration, Nmur2-/- transgenic mice
  body weight, body composition, body temperature and food intake: largely unaffected
[1]; chronic peripheral administration, Nmur1-/- transgenic mice
  body weight, body composition and food intake: largely unaffected

## FRVDEEFQSPFASQSRGFWLFRA-(Harg)-N-CONH2 (FRVDEEFQSPFASQSRGFWLFRA[hArg]N-NH2; N-terminus assumed; SMILES CC(C)C[C@H](NC(=O)[C@H](Cc1c[nH]c2ccccc12)NC(=O)[C@H](Cc1ccccc1)NC(=O)CNC(=O)[C@H](CCCNC(=N)N)NC(=O)[C@H](CO)NC(=O)[C@H](CCC(N)=O)NC(=O)[C@H](CO)NC(=O)[C@H](C)NC(=O)[C@H](Cc1ccccc1)NC(=O)[C@@H]1CCCN1C(=O)[C@H](CO)NC(=O)[C@H](CCC(N)=O)NC(=O)[C@H](Cc1ccccc1)NC(=O)[C@H](CCC(=O)O)NC(=O)[C@H](CCC(=O)O)NC(=O)[C@H](CC(=O)O)NC(=O)[C@@H](NC(=O)[C@H](CCCNC(=N)N)NC(=O)[C@@H](N)Cc1ccccc1)C(C)C)C(=O)N[C@@H](Cc1ccccc1)C(=O)N[C@@H](CCCNC(=N)N)C(=O)N[C@@H](C)C(=O)N[C@@H](CCCCNC(=N)N)C(=O)N[C@@H](CC(N)=O)C(N)=O)
[2]
  receptor specificity (NMUR1 / NMUR2): bispecific

## Ac-C2FRVDEEFQSPFASQSRGYFLFRPRN-CONH2 (Ac-C((PEG)2 40 kDa)FRVDEEFQSPFASQSRGYFLFRPRN-NH2; also: PEG size not given here) [NMU12, PEGylated NMU analog; differs from NMU9 by the source of the PEG]
[3]; 0.1 mpk
  glucagon levels: reduced
[3]; 1 mpk
  glucagon levels: reduced
[4]; 10 mpk, 18-hr post dose, absence of food (FIG. 4B)
  PYY levels: did not increase
[4]; 18-hours post dose, presence of food, obese mice (FIG. 4A)
  PYY levels in plasma: dose-dependently increased
[5]; 0.1 mpk
  plasma glucose levels: reduced
[5]; 1 mpk
  plasma glucose levels: reduced
[6]; 18-hours post dose, absence of food (FIG. 5B)
  total GLP-1 levels: increased
[6]; 18-hours post dose, presence of food (FIG. 5A)
  total GLP-1 levels: increased
[7]; Nmur1 knockout mice
  food intake: reduce food intake
  weight gain: reduce weight gain
[7]; inferred from effect in Nmur1 knockout mice
  crossing the blood-brain barrier: able to cross the blood-brain barrier

## FRVDEEFQSPFASQSRGYFLFRPRN-CONH2 (FRVDEEFQSPFASQSRGYFLFRPRN-NH2) [NMU]
[1]; acute administration, centrally or peripherally, mice
  food intake: reduce
[1]; acute peripheral administration, mice
  core body temperature: dose-dependently increases
[1]; centrally administered, NMUR1-deficient (Nmur1-/-) mice
  anorectic actions: present
[1]; centrally administered, NMUR2-deficient (Nmur2-/-) mice
  anorectic actions: absent
[1]; chronic administration, centrally or peripherally, mice
  food intake, body weight and adiposity: reduces
[1]; peripherally administered, Nmur1-/- mice
  anorectic actions: absent
[1]; peripherally administered, Nmur2-/- mice
  anorectic actions: present
[4]; 10 mpk, four-hours post dose, obese mice (FIG. 1A)
  increase of PYY levels: about two-fold
[4]; 10 mpk, four-hours post dose, obese mice (FIG. 1B)
  PYY levels: increased
[4]; 10 mpk, two-hours post dose, obese mice (FIG. 1B)
  PYY levels: increased
[8]; Nmur1-deficient mice
  GLP-1 levels: not
[8]; Nmur2-deficient mice
  GLP-1 levels: Increased
[8]; wild-type mice
  GLP-1 levels: Increased
[6]; four-hours post dose, obese mice (FIG. 2A)
  total GLP-1 levels: increased
[6]; chronic treatment 3 mpk/day subcutaneously for two weeks (FIG. 2B)
  total GLP-1: significant increase

## FALFRPRN-CONH2 (FALFRPRN-NH2)
[2]
  receptor specificity (NMUR1 / NMUR2): bispecific

## FRVDEEFQSPFASQSRGFWLFRP-(Harg)-N-CONH2 (FRVDEEFQSPFASQSRGFWLFRP[hArg]N-NH2; N-terminus assumed; SMILES CC(C)C[C@H](NC(=O)[C@H](Cc1c[nH]c2ccccc12)NC(=O)[C@H](Cc1ccccc1)NC(=O)CNC(=O)[C@H](CCCNC(=N)N)NC(=O)[C@H](CO)NC(=O)[C@H](CCC(N)=O)NC(=O)[C@H](CO)NC(=O)[C@H](C)NC(=O)[C@H](Cc1ccccc1)NC(=O)[C@@H]1CCCN1C(=O)[C@H](CO)NC(=O)[C@H](CCC(N)=O)NC(=O)[C@H](Cc1ccccc1)NC(=O)[C@H](CCC(=O)O)NC(=O)[C@H](CCC(=O)O)NC(=O)[C@H](CC(=O)O)NC(=O)[C@@H](NC(=O)[C@H](CCCNC(=N)N)NC(=O)[C@@H](N)Cc1ccccc1)C(C)C)C(=O)N[C@@H](Cc1ccccc1)C(=O)N[C@@H](CCCNC(=N)N)C(=O)N1CCC[C@H]1C(=O)N[C@@H](CCCCNC(=N)N)C(=O)N[C@@H](CC(N)=O)C(N)=O)
[2]
  receptor specificity (NMUR1 / NMUR2): bispecific
